Where a SMILES comes first, the peptide text is derived from it. [ ]: non-standard residue; d: D form. The star is where a group is joined. 2Nal = N[C@@H](Cc1ccc2ccccc2c1)C(=O)O; hPhe = N[C@@H](CCc1ccccc1)C(=O)O; Cha = N[C@@H](CC1CCCCC1)C(=O)O; Phg = N[C@H](C(=O)O)c1ccccc1; Nle = CCCC[C@H](N)C(=O)O; Nva = CCC[CH](N)C(=O)O; Cbz = O=C(OCc1ccccc1)*; Bn = c1ccc(C*)cc1; NHBu = CCCCN*
Each molecule was assayed against Tripeptidyl-peptidase 2 (Rattus norvegicus, UniProt Q64560) (assay: Inhibition potency against Cholecystokinin-8-Inactivating Peptidase (Serine Peptidase).).
Chain of Tripeptidyl-peptidase 2 (Q64560 whole entry): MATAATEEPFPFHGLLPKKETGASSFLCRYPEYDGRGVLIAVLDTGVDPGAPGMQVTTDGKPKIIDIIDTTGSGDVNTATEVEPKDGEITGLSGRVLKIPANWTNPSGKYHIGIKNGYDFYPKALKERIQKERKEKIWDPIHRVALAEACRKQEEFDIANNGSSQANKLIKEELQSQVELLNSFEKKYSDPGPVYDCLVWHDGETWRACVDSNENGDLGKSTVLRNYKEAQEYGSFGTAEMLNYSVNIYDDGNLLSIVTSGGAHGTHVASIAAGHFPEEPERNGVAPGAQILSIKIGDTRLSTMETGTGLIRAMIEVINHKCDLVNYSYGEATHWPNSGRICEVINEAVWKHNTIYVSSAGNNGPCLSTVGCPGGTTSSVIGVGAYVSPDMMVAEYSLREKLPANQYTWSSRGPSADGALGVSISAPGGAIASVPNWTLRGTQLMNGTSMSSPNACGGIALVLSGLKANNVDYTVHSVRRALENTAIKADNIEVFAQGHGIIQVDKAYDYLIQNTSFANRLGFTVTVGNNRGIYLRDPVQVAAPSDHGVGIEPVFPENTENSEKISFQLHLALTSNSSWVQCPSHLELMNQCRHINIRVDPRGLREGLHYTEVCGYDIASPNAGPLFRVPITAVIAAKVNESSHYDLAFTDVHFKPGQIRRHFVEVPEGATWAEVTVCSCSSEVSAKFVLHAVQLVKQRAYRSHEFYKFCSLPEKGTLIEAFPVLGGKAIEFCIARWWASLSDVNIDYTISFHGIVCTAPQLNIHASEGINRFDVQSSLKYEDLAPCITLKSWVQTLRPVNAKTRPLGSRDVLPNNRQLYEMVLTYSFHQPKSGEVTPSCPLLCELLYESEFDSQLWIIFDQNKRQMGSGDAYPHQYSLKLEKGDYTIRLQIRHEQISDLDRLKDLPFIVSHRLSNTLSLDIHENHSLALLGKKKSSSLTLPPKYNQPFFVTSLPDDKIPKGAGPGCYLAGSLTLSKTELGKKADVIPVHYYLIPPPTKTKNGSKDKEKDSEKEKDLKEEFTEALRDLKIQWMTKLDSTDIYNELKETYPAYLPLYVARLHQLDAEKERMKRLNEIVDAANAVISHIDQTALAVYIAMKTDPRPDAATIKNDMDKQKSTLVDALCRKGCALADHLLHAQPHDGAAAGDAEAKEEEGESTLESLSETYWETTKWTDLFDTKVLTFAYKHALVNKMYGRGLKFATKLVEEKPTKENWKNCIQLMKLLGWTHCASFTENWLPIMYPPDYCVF

Row | Ki | Structure (SMILES)
1 | 114 µM | CC(C)[C@H](N)C(=O)NCCc1ccccc1
2 | 2100 µM | CC(C)[C@H](N)C(=O)NC(CO)Cc1ccccc1 (stereo partly drawn)
3 | 86 µM | CC(C)[C@H](N)C(=O)NCCCc1ccccc1
4 | 33 µM | CC(C)[C@H](N)C(=O)NCCCCc1ccccc1
5 | 80 µM | CC(C)[C@H](N)C(=O)NCc1ccccc1
6 | 230 µM | CCCCOC(=O)[C@H](Cc1ccccc1)NC(=O)[C@@H](N)C(C)C
7 | > 5000 µM | CCC[C@H](NC(=O)[C@@H](NCc1ccccc1)C(C)C)C(=O)O
8 | 29 µM | CCCC[C@H](NC(=O)[C@@H](N)C(C)C)C(=O)NCCCc1ccccc1
9 | 1140 µM | C[C@H](N)C(=O)N[C@@H](Cc1ccccc1)C(=O)O
10 | > 5000 µM | CCCC(NC(=O)C(NC(=O)OCc1ccccc1)C(C)C)C(=O)O (stereo not drawn) (Cbz-Val-[Nva]-OH; configuration not given here)
11 | 29 µM | CC(C)[C@H](NC(=O)CN)C(=O)N[C@@H](Cc1ccccc1)C(=O)O (H-Gly-Val-Phe-OH)
12 | 20 µM | CCCCNC(=O)[C@H](Cc1ccccc1)NC(=O)[C@@H](N)C(C)C (H-Val-Phe-NHBu)
13 | 22 µM | CNC(=O)[C@H](Cc1ccccc1)NC(=O)[C@@H](N)C(C)C (H-Val-Phe-NHMe)
14 | 260 µM | COC(=O)[C@H](Cc1ccccc1)NC(=O)[C@@H](N)C(C)C (H-Val-Phe-OMe)
15 | 210 µM | CC(C)C(N)C(=O)NC(Cc1ccc(OCc2ccccc2)cc1)C(=O)O (stereo not drawn) (H-Val-Tyr(Bn)-OH; configuration not given here)
16 | 11 µM | CNC(=O)[C@H](Cc1ccc(O)cc1)NC(=O)[C@@H](N)C(C)C (H-Val-Tyr-NHMe)
17 | 14 µM | CCCCNC(=O)[C@H](CCCC)NC(=O)[C@@H](N)C(C)C (H-Val-[Nle]-NHBu)
18 | 66 µM | CCCC[C@H](NC(=O)[C@@H](N)C(C)C)C(=O)NC (H-Val-[Nle]-NHMe)
19 | 3 µM | CCCCNC(=O)[C@H](CCC)NC(=O)[C@@H](N)C(C)C (H-Val-[Nva]-NHBu)
20 | 29 µM | CNC(=O)[C@@H](NC(=O)[C@@H](N)C(C)C)c1ccccc1 (H-Val-[Phg]-NHMe)
21 | 570 µM | CC(C)[C@H](N)C(=O)N[C@@H](CCc1ccccc1)C(=O)O (H-Val-[hPhe]-OH)

Further lines, the molecule ahead of its results:

Row | Structure (SMILES) | Ki
22 | CCCCOC(=O)C(CCCC)NC(=O)C(NC(=O)OCc1ccccc1)C(C)C (stereo not drawn) | > 3000 µM
23 | C[C@H](N)C(=O)N[C@@H](C)C(=O)N[C@@H](C)C(=O)O | 14 µM
24 | CCCC[C@H](NC(=O)[C@@H](N)CCCC)C(=O)NC | 9 µM
25 | CCCCOC(=O)[C@H](CCCC)NC(=O)[C@@H](N)C(C)C | 290 µM
26 | CCCC[C@H](NC)C(=O)N[C@@H](CCCC)C(=O)NC | > 3000 µM
27 | CCCCOC(=O)N[C@H](C(=O)N[C@@H](CCCC)C(=O)O)C(C)C | > 5000 µM
28 | CCCC[C@H](NC(=O)[C@@H](N)CCCC)C(=O)O | 1430 µM
29 | CSCC[C@@H](NC(=O)[C@@H](N)C(C)C)C(=O)O | 2000 µM
30 | CSCC[C@@H](N)C(=O)N[C@@H](Cc1ccc(O)cc1)C(=O)O | 2000 µM
31 | CCCC[C@H](NC)C(=O)N[C@@H](CCCC)C(=O)OC | > 5000 µM
32 | CCCC[C@H](NCc1ccccc1)C(=O)N[C@@H](CCCC)C(=O)NC | > 3000 µM
33 | CC(N)C(=O)NC(C)C(=O)O (stereo not drawn) | 5000 µM
34 | CCC[C@H](NC(=O)[C@@H](NC(C)=O)C(C)C)C(=O)O (Ac-Val-[Nva]-OH) | > 500 µM
35 | CC(C)C(NC(=O)C(NC(=O)OCc1ccccc1)C(C)C)C(=O)O (stereo not drawn) (Cbz-Val-Val-OH; configuration not given here) | > 5000 µM
36 | C[C@H](N)C(=O)N[C@@H](C)C(=O)N1CCC[C@H]1C(=O)N[C@@H](C)C(=O)O (H-AAPA-OH) | 114 µM
37 | C[C@H](N)C(=O)N1CCC[C@H]1C(=O)N[C@@H](C)C(=O)O (H-Ala-Pro-Ala-OH) | 3 µM
38 | C[C@H](N)C(=O)N1CCC[C@H]1C(=O)O (H-Ala-Pro-OH) | 1400 µM
39 | CSCC[C@H](NC(=O)[C@H](Cc1ccc(O)cc1)NC(=O)[C@@H](N)CC(=O)O)C(=O)O (H-Asp-Tyr-Met-OH) | 50 µM
40 | N[C@@H](CC(=O)O)C(=O)N[C@@H](Cc1ccc(O)cc1)C(=O)O (H-Asp-Tyr-OH) | > 5000 µM

Row | Structure (SMILES) | Ki
41 | NCC(=O)NCC(=O)N[C@@H](Cc1ccccc1)C(=O)O (H-Gly-Gly-Phe-OH) | 110 µM
42 | NCC(=O)N[C@@H](Cc1ccccc1)C(=O)O (H-Gly-Phe-OH) | 470 µM
43 | CSCC[C@H](NC(=O)[C@H](Cc1c[nH]c2ccccc12)NC(=O)CN)C(=O)O (H-Gly-Trp-Met-OH) | 20 µM
44 | NCC(=O)N[C@@H](Cc1c[nH]c2ccccc12)C(=O)O (H-Gly-Trp-OH) | 650 µM
45 | CC(C)[C@H](N)C(=O)N[C@@H](C)C(=O)O (H-Val-Ala-OH) | 9000 µM
46 | CC(C)[C@H](N)C(=O)N[C@@H](Cc1ccc(O)cc1)C(=O)O (H-Val-Tyr-OH) | 857 µM
47 | CNC(=O)[C@@H](NC(=O)[C@@H](N)C(C)C)C(C)C (H-Val-Val-NHMe) | 46 µM
48 | CC(C)[C@H](N)C(=O)N[C@@H](Cc1ccc2ccccc2c1)C(=O)O (H-Val-[2Nal]-OH) | 60 µM
49 | CCCCNC(=O)[C@H](CC1CCCCC1)NC(=O)[C@@H](N)C(C)C (H-Val-[Cha]-NHBu) | 57 µM
50 | CC(C)[C@H](N)C(=O)N[C@@H](CC1CCCCC1)C(=O)O (H-Val-[Cha]-OH) | 3000 µM
51 | CCCC[C@H](NC(=O)[C@@H](N)C(C)C)C(=O)O (H-Val-[Nle]-OH) | 860 µM
52 | CCC[C@H](NC(=O)[C@@H](N)C(C)C)C(=O)NC (H-Val-[Nva]-NHMe) | 28 µM
53 | CCC[C@H](NC(=O)[C@@H](N)C(C)C)C(=O)O (H-Val-[Nva]-OH) | 433 µM
54 | CC(C)[C@H](N)C(=O)N[C@H](C(=O)O)c1ccccc1 (H-Val-[Phg]-OH) | 600 µM
55 | CCC[C@H](NC(=O)[C@@H](N)CCC)C(=O)O (H-[Nva]-[Nva]-OH) | 1000 µM
56 | CSCC[C@@H](N)C(=O)N[C@H](CCSC)C(=O)O (H-[dM]-[dM]-OH) | > 5000 µM
57 | CC[C@H](C)[C@H](N)C(=O)N1CCC[C@H]1C(=O)N[C@H](C(=O)O)[C@@H](C)CC [DIPROTIN A] | 1 µM
58 | CC(C)[C@H](N)C(=O)N[C@H](C(=O)O)C(C)C [VAL-VAL] (H-Val-Val-OH) | 1670 µM

— ChEMBL document CHEMBL1133599, “Inhibitors of tripeptidyl peptidase II. 2. Generation of the first novel lead inhibitor of cholecystokinin-8-inactivating peptidase: a strategy for the design of peptidase inhibitors” (J Med Chem, 2000)
